Article PMC5466598, “Synthesis, Chemical Characterization and Multiscale Biological Evaluation of a Dimeric-cRGD Peptide for Targeted Imaging of αVβ3 Integrin Activity” (Scientific Reports, 2017)
Like-named read-outs stand apart in the source and are kept apart here. One block for each molecule: values may come before it.

Key:
α V β 3 receptor = conditions: cited from earlier work; for Kd: comparison values quoted in discussion, no reference given, read-out: binding affinity (Kd); for k off: dissociation from α V β 3 receptor
[1] = In vivo stability / metabolism (HPLC of urine and feces); set-up: species or system Lewis rats
Protocol: Following dynamic PET-CT imaging, both urine and feces samples were collected to assess radiotracer’s metabolism and excretion route. The urine samples were collected at 90 min post injection by manual void, mixed at 1:1 ratio (v/v) with 50% CH3 CN and centrifuged at 5000 rpm. The supernatant was collected, analyzed by HPLC (C18 column, flow 1 mL/min, CH3 OH/H2 O, 5/95, v/v), and chromatograms compared to reference samples of (7) and ^64Cu-acetate. Feces samples were collected at 90 min post injection, suspended in 50% CH3 CN, homogenized and centrifuged at 5000 rpm. The supernatant was filtered and analyzed by RP-HPLC.

[2] = Biodistribution by gamma well counting at 90 min post-injection; type: in vivo, Lewis rats; conditions: Lewis, rat, iv, total radioactivity, 90 min after intravascular injection
Protocol: To assess blood clearance and organ uptake dynamic in vivo PET-CT imaging was performed followed by image processing and analysis. Lewis rats (n = 6, Harlan Inc.) were anesthetized with 2% isoflurane, the neck area was shaved and a jugular vein cut-down procedure was performed to insert a PE-50 […] catheter for radiotracer injection. Animals were then placed in supine position on the polyacrylic imaging bed of a small animal dedicated PET-CT scanner (Inveon, Siemens Healthcare, USA). At the time of PET acquisition, animals were injected with ~22.2 MBq of (7) via the jugular vein catheter over 30 s followed by bolus infusion of 0.2 mL sterile saline. Animals underwent 60 min dynamic PET imaging (15% energy window centered at 511 keV) followed by anatomical X-ray CT imaging (80 keV, 500 μA, 100 μm spatial resolution).
For biodistribution studies, all animals were euthanized at 90 min post-injection and selected organ samples were collected for gamma well counting analysis. All collected sections were weighed and the tissue radioactivity was measured with Wizard^2 gamma well counter (Perkin-Elmer, USA). Measured ^64Cu activity was corrected for background, decay time, and tissue weight.

[3] = molecular target: T1, αVβ3 integrin on human umbilical vein endothelial cells (HUVEC) (human (endogenous in HUVEC)), P06756; experiment: flow cytometry on cells; HUVEC pretreated with Mn2+ (20 μM) for 10 min, washed, then (8) 0-200 nM for 1 h at room temperature; conditions: remark: other sources report otherwise
T1 chain 1: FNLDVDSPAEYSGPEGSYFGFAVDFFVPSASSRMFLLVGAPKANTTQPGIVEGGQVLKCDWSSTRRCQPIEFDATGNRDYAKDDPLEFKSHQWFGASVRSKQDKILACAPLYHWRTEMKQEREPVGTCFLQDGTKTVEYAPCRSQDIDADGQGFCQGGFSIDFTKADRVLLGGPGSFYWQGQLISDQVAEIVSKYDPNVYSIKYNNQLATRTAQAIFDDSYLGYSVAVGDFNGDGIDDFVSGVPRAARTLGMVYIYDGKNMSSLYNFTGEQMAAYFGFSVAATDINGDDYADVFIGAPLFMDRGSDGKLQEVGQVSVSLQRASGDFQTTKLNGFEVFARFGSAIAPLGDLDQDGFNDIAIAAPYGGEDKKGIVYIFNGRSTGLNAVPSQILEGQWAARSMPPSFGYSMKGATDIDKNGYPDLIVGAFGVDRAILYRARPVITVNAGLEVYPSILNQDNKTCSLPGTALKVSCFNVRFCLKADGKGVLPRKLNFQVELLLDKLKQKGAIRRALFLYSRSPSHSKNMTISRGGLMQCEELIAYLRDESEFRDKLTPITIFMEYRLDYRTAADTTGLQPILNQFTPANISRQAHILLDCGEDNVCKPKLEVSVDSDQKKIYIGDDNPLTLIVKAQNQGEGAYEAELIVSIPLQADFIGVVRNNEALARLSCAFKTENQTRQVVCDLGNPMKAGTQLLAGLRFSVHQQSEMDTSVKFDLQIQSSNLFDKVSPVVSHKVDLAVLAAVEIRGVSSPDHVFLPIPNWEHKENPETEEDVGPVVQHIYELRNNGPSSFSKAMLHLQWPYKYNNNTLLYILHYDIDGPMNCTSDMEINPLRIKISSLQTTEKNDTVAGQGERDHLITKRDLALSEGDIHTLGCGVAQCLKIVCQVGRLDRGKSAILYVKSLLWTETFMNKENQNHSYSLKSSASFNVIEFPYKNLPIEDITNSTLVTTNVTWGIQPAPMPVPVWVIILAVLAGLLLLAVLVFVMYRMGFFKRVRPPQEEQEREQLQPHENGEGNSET
T1 chain 2: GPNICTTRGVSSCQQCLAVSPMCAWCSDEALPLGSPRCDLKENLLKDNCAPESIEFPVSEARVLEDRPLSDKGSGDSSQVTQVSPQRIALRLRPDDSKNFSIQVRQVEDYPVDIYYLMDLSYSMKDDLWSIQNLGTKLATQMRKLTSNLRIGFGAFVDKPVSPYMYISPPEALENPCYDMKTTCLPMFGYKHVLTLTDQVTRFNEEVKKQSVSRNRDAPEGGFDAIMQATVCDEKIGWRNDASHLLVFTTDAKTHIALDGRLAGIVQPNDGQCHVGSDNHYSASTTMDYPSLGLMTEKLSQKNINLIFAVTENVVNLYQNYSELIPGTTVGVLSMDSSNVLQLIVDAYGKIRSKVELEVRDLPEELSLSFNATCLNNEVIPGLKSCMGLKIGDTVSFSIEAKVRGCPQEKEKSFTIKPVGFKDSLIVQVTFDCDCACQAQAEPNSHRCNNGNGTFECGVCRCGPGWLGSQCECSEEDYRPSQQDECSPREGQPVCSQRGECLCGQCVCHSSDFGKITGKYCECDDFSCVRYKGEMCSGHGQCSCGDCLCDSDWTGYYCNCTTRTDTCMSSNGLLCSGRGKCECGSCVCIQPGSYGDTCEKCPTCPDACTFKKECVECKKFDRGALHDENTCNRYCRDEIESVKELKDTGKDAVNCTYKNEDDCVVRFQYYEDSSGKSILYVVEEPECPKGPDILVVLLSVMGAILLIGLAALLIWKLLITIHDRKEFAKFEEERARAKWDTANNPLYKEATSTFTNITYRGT

[4] = molecular target: T1, αVβ3 integrin on human umbilical vein …; experiment: radioligand binding; HUVEC pretreated with Mn2+ (20 μM) for 10 min, washed, then (7) 0-100 nM for 1 h at room temperature; gamma well counting; conditions: remark: other sources report otherwise

Molecule: vibronectin: classical adhesive protein
- Kd (α V β 3 receptor): 64 nM
- k off (α V β 3 receptor): 0.00021 s⁻¹

Molecule: fibrinogen
- Kd (α V β 3 receptor): 27 nM
- k off (α V β 3 receptor): 0.00098 s⁻¹

B2: 64Cu-NOTA-PEG4-cRGD2 (7) (peptide)
chain: cyclo(RGDFK)
modifications: also: cyclic RGD dimer: each peptide via N3-PEG2 triazole on Glu bis-propargyl amide, PEG4, NOTA, 64Cu
- increase of binding against HUVECs without Mn2+ [4]: 78%

Next, values leading:

- activity in the feces ([1]; feces collected at 90 min post injection, RP-HPLC): no detectable activity
- fraction remaining intact in the urine ([1]; urine collected at 90 min post injection, HPLC): more than 90%
- tissue uptake at […] ([2]; intestines, read-out: uptake in intestines): 4.62 ± 0.24 %ID/g
- tissue uptake at […] ([2]; kidney cortex, read-out: uptake in kidney cortex): 11.1 ± 2.2 %ID/g
- tissue uptake at […] ([2]; kidney medulla, read-out: uptake in kidney medulla): 3.66 ± 0.4 %ID/g
- tissue uptake at […] ([2]; lungs, read-out: uptake in lungs): 2.95 ± 0.43 %ID/g
- tissue uptake at […] ([2]; spleen, read-out: uptake in spleen): 2.25 ± 0.33 %ID/g
Molecule: N=C(N)NCCC[C@@H]1NC(=O)[C@H](CCCCNC(=O)COCCOCCn2cc(CNC(=O)CC[C@H](NC(=O)CCOCCOCCOCCOCCNC(=S)Nc3ccc(CC4CN(CC(=O)O)CCN(CC(=O)O)CCN4CC(=O)O)cc3)C(=O)NCc3cn(CCOCCOCC(=O)NCCCC[C@@H]4NC(=O)[C@@H](Cc5ccccc5)NC(=O)[C@H](CC(=O)O)NC(=O)CNC(=O)[C@H](CCCNC(=N)N)NC4=O)nn3)nn2)NC(=O)[C@@H](Cc2ccccc2)NC(=O)[C@H](CC(=O)O)NC(=O)CNC1=O (stereo partly shown) [compound 7]

- increase of binding against HUVECs without Mn2+ [3]: 78%
B1: FITC-PEG4-cRGD2 (8) (peptide)
chain: cyclo(RGDFK)
modifications: also: cyclic RGD dimer: each peptide via N3-PEG2 triazole on Glu bis-propargyl amide, PEG4, fluorescein (from FITC)
